Where two headings read alike, the source gives them in different places.
Columns and labels:
[1] = type: physicochemical; conditions: for ThT Cat. / ThT-Fluorescence (categorical): ThT-active if fluorescence at least twice the control
In short: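 Preformed peptide fibrils (1 mg/mL) mixed with 50 µM ThT in PBS, 15 min at RT, fluorescence ex 440/em 488 nm versus PBS blank, triplicates. Zeta potential: peptides at 1 mg/mL in PBS pH 7.4, aged 1 d at RT, diluted in 1 mM KCl, Smoluchowski from electrophoretic mobility.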

[2] = Turbidity, derived count rate of scattered light; type: physicochemical; conditions: for Count Rate: derived count rate of scattered light (turbidity); for Log10 Count Rate: turbidity, derived count rate of scattered light, data of Figure 2D
[3] = type: physicochemical; set-up: key to Fibril / Fibril Formation / TEM 2cat / Fibril: 1 = fibrils present; 0 non-fibrillar structures; conditions: for Fibril / Fibril Formation: 1 mg/mL, uranyl acetate stain, qualitative
[4] = TEM, 1 = fibrils present, 0 = non-fibrillar
[5] = TEM, 1 = fibrils present, 0 = non-fibrillar structures
[6] = category: fibrils present or non-fibrillar
[7] = ThT fluorescence category, 1 if Rel. ThT >2
[8] = Fig S10 panel D, fibril category by TEM
[9] = FigS12 panel A, fibril category by TEM

Row | Substance | Tht category (> 2 to blank = +) ([1]; Fig S10 panel D) | ThT Cat. ([1]; Fig S10 panel E) | ThT Cat, ([1]; ThT category, 1 if Rel. ThT >2) | ThT Cat. ([1]; ThT category, 1 if Rel. ThT >2) | ThT Cat. / ThT-Fluorescence (categorical) [1] | Count Rate [2] | Log10 Count Rate [2] | TEM 2cat ([3]; Fig S10 panel D) | Fibril ([3]; Fig S10 panel E) | Fibril / Fibril Formation ([3]; TEM) | Fibril [3, 4] | Fibril [3, 5] | TEM 2cat [3, 6] | ThT Cat. [1, 7] | TEM 2cat [3, 8] | Tht category (> 2 to blank = +) ([1]; FigS12 panel A) | ThT Cat, ([1]; FigS12 panel B) | TEM 2cat [3, 9] | Fibril ([3]; FigS12 panel B, TEM)
1 | CKFKQFFNMWQ | 1 (ThT. Cat is 1, if Rel. ThT >2) | 1 (ThT. Cat is 1, if Rel. ThT >2) | 1 (ThT. Cat is 1, if Rel. ThT >2) | 1 (ThT. Cat is 1, if Rel. ThT >2) | 1 (ThT. Cat is 1, if Rel. ThT >2) | 8210 | 3.914 | 1 | 1 | 1 | 1 | 1 | 1 | – | – | – | – | – | –
2 | CKIKIQI | 1 (ThT. Cat is 1, if Rel. ThT >2) | 1 (ThT. Cat is 1, if Rel. ThT >2) | 1 (ThT. Cat is 1, if Rel. ThT >2) | – | 1 (ThT. Cat is 1, if Rel. ThT >2) | 2432.9 | 3.386 | – | 1 | 1 | 1 | 1 | 1 | 1 (ThT. Cat is 1, if Rel. ThT >2) | 1 | – | – | – | –
3 | CKIKIQINM | 1 (ThT. Cat is 1, if Rel. ThT >2) | 1 (ThT. Cat is 1, if Rel. ThT >2) | 1 (ThT. Cat is 1, if Rel. ThT >2) | – | 1 (ThT. Cat is 1, if Rel. ThT >2) | 4228 | 3.626 | – | 1 | 1 | 1 | 1 | 1 | 1 (ThT. Cat is 1, if Rel. ThT >2) | 1 | – | – | – | –
4 | CKIKIQINMW | 0 (ThT-inactive (N-Fold <2)) | – | 0 (ThT-inactive (N-Fold <2)) | 0 (ThT-inactive (N-Fold <2)) | 0 (ThT-inactive (N-Fold <2)) | 4915 | 3.692 | – | – | 1 | 1 | 1 | 1 | – | 1 | – | – | – | –
5 | CKIKIQIRGD | 0 (ThT-inactive (N-Fold <2)) | 0 (ThT-inactive (N-Fold <2)) | 0 (ThT-inactive (N-Fold <2)) | – | 0 (ThT-inactive (N-Fold <2)) | 5777 | 3.762 | – | 1 | 1 | 1 | 1 | 1 | 0 (ThT-inactive (N-Fold <2)) | 1 | – | – | – | –
6 | CKIKQII | 1 (ThT. Cat is 1, if Rel. ThT >2) | 1 (ThT. Cat is 1, if Rel. ThT >2) | 1 (ThT. Cat is 1, if Rel. ThT >2) | – | 1 (ThT. Cat is 1, if Rel. ThT >2) | 74.6 | 1.873 | – | 1 | 1 | 1 | 1 | – | 1 (ThT. Cat is 1, if Rel. ThT >2) | 1 | 1 (ThT. Cat is 1, if Rel. ThT >2) | 1 (ThT. Cat is 1, if Rel. ThT >2) | 1 | 1
7 | CKIKQIINMWQ | 1 (ThT. Cat is 1, if Rel. ThT >2) | 1 (ThT. Cat is 1, if Rel. ThT >2) | 1 (ThT. Cat is 1, if Rel. ThT >2) | – | 1 (ThT. Cat is 1, if Rel. ThT >2) | 8317 | 3.92 | – | 1 | 1 | 1 | 1 | 1 | 1 (ThT. Cat is 1, if Rel. ThT >2) | 1 | – | – | – | –
8 | CKIKQIIRGD | – | – | 0 (ThT-inactive (N-Fold <2)) | – | 0 (ThT-inactive (N-Fold <2)) | 3495 | 3.544 | – | – | 0 | 0 | 0 | – | 0 (ThT-inactive (N-Fold <2)) | – | – | 0 (ThT-inactive (N-Fold <2)) | – | 0
9 | CKIW | 0 (ThT-inactive (N-Fold <2)) | 0 (ThT-inactive (N-Fold <2)) | 0 (ThT-inactive (N-Fold <2)) | 0 (ThT-inactive (N-Fold <2)) | 0 (ThT-inactive (N-Fold <2)) | 3.2 | 0.5051 | – | 0 | 0 | 0 | 0 | – | – | 0 | 0 (ThT-inactive (N-Fold <2)) | 0 (ThT-inactive (N-Fold <2)) | 0 | 0
10 | CQFQFQF | 1 (ThT. Cat is 1, if Rel. ThT >2) | – | 1 (ThT. Cat is 1, if Rel. ThT >2) | – | 1 (ThT. Cat is 1, if Rel. ThT >2) | 7929 | 3.899 | – | – | 1 | 1 | 1 | 1 | 1 (ThT. Cat is 1, if Rel. ThT >2) | 1 | – | – | – | –
11 | CSISIQI | 1 (ThT. Cat is 1, if Rel. ThT >2) | 1 (ThT. Cat is 1, if Rel. ThT >2) | 1 (ThT. Cat is 1, if Rel. ThT >2) | – | 1 (ThT. Cat is 1, if Rel. ThT >2) | 10241.1 | 4.01 | – | 1 | 1 | 1 | 1 | – | 1 (ThT. Cat is 1, if Rel. ThT >2) | 1 | 1 (ThT. Cat is 1, if Rel. ThT >2) | 1 (ThT. Cat is 1, if Rel. ThT >2) | 1 | 1
12 | CSISIQINM | 1 (ThT. Cat is 1, if Rel. ThT >2) | 1 (ThT. Cat is 1, if Rel. ThT >2) | 1 (ThT. Cat is 1, if Rel. ThT >2) | – | 1 (ThT. Cat is 1, if Rel. ThT >2) | 3291 | 3.517 | – | 1 | 1 | 1 | 1 | 1 | 1 (ThT. Cat is 1, if Rel. ThT >2) | 1 | – | – | – | –
13 | EIEIQINM | 0 (ThT-inactive (N-Fold <2)) | 0 (ThT-inactive (N-Fold <2)) | 0 (ThT-inactive (N-Fold <2)) | 0 (ThT-inactive (N-Fold <2)) | 0 (ThT-inactive (N-Fold <2)) | 134 | 2.127 | – | 1 | 1 | 1 | 1 | – | – | 1 | 0 (ThT-inactive (N-Fold <2)) | 0 (ThT-inactive (N-Fold <2)) | 1 | 1
